Source: PMC4076210, “Discovery of Novel AKT Inhibitors with Enhanced Anti-Tumor Effects in Combination with the MEK Inhibitor” (PLoS ONE, 2014)
pIC50: −log10 of the molar value.

System: hematological tumor cell lines
Assay: 3-day proliferation assay (CellTiter-Glo)
Format: cell-based, human
Details: for pIC50: Homo sapiens
Procedure: Various tumor cell lines were obtained from different sources including; the American Type Cell Culture Collection, the Developmental Therapeutics Program, the National Cancer Institute, the German Resource Center for Biological Material and the European Collection of Animal Cell Cultures. Cell lines were typically grown in […] containing 10% FBS. Some cell lines were grown in media specified by the vendor. A 3-day proliferation assay using CellTiter-Glo (CTG, Promega) was performed to measure the growth inhibition by the compounds at 0–30 µM. Cell growth was determined relative to untreated (DMSO) controls. EC50's were calculated from inhibition curves using a 4- or 6-parameter fitting algorithm in the Assay Client application.

SMILES: Cn1ncc(Cl)c1-c1cc(C(=O)N[C@H](CN)Cc2ccc(F)c(F)c2)oc1Cl [GSK2141795]
- hematological cell lines sensitive (EC50<1 µM) (112 cell lines, 3 days, CTG): 81%
- pIC50 (1A2, 1A2 cell line, Burkitt's Lymphoma, B Cell): 7.03
- pIC50 (697 cell line, ALL, pre-B Cell): 6.52
- pIC50 (ARH-77, ARH77 cell line, Multiple Myeloma, B Cell): 6.81
- pIC50 (B-cell, BDCM cell line, AML, B Cell): 7.85
- pIC50 (B-cell, CESS cell line, AML, B Cell): 8.05
- pIC50 (B-cell, CRO-AP3 cell line, Primary Effusion Lymphoma (PEL), B Cell): 6.95
- pIC50 (B-cell, EHEB cell line, CLL, B Cell): 7.29
- pIC50 (B-cell, HKB-11 cell line, Burkitt's Lymphoma, B Cell): 7.28
- pIC50 (B-cell, HS-Sultan cell line, Burkitt's Lymphoma, B Cell): 6.65
- pIC50 (B-cell, KARPAS-231 cell line, ALL, B Cell): 7.44
- pIC50 (B-cell, MC/CAR cell line, Multiple Myeloma, B Cell): 7.40
- pIC50 (B-cell, MN60 cell line, ALL, B Cell): 6.19
- pIC50 (B-cell, Namalwa cell line, Burkitt's Lymphoma, B Cell): 6.52
- pIC50 (B-cell, SD-1 cell line, ALL, B Cell): 7.82
- pIC50 (B-cell, Tanoue cell line, ALL, B Cell): 5.84
- pIC50 (BC1, BC1 cell line, Burkitt's Lymphoma, B Cell): 6.33
- pIC50 (BC-3, BC3 cell line, Burkitt's Lymphoma, B Cell): 5.51
- pIC50 (BV-173, BV173 cell line, CML, pre-B Cell): 6.07
- pIC50 (CA46, CA46 cell line, Burkitt's Lymphoma, B Cell): 6.02
- pIC50 (CCRF-CEM, CCRFCEM cell line, ALL, T Cell): 6.84
- pIC50 (CCRF-SB, CCRFSB cell line, ALL, B Cell): 7.70
- pIC50 (CEM/C1, CEM/C1 cell line, ALL, T Cell): 7.52
- pIC50 (CEM/C2, CEM/C2 cell line, ALL, T Cell): 7.66
- pIC50 (CML-T1, CML-T1 cell line, CML, T Cell): 5.28
- pIC50 (CRO-AP5, CRO-AP5 cell line, Primary Effusion Lymphoma (PEL), B Cell): 7.47
- pIC50 (DB, DB cell line, Non-Hodgkin's Lymphoma, B Cell): 5.28
- pIC50 (DG-75, DG75 cell line, Burkitt's Lymphoma, B Cell): 4.83
- pIC50 (DOHH-2, DOHH-2 cell line, Non-Hodgkin's Lymphoma, B Cell): 7.98
- pIC50 (Daudi, DAUDI cell line, Burkitt's Lymphoma, B Cell): 6.57
- pIC50 (EB1, EB1 cell line, Burkitt's Lymphoma, B Cell): 7.31
- pIC50 (EB2, EB2 cell line, Burkitt's Lymphoma, B Cell): 6.59
- pIC50 (EB-3, EB3 cell line, Burkitt's Lymphoma, B Cell): 5.75
- pIC50 (EM-2, EM2 cell line, CML, Unspecified): 5.78
- pIC50 (Farage cell line, Non-Hodgkin's Lymphoma, B Cell): 6.99
- pIC50 (GA-10, GA-10 cell line, Burkitt's Lymphoma, B Cell): 7.77
- pIC50 (GDM-1, GDM-1 cell line, AML, Monoblast): 5.51
- pIC50 (HD-MY-Z cell line, Hodgkin's Lymphoma, Unspecified): 5.08
- pIC50 (HEL 92.1.7, HEL92.1.7 cell line, AML, Erythroleukemia): 5.11
- pIC50 (HH, HH cell line, Non-Hodgkin's Lymphoma (CTCL), T Cell): 7.07
- pIC50 (HL-60, HL-60 cell line, AML, Myeloblast): 5.43
- pIC50 (HSB2, HSB2 cell line, ALL, T Cell): 6.24
- pIC50 (HT, HT cell line, Burkitt's Lymphoma, B Cell): 7.03
- pIC50 (HuT78, HuT78 cell line, Non-Hodgkin's Lymphoma (CTCL), T Cell): 6.83
- pIC50 (J.gamma1, J.Gamma-1 cell line, ALL, T Cell): 7.68
- pIC50 (JIYOYE, JIYOYE cell line, Burkitt's Lymphoma, B Cell): 6.27
- pIC50 (JM1, JM1 cell line, Burkitt's Lymphoma, pre-B Cell): 6.67
- pIC50 (JVM13, JVM13 cell line, CLL, B Cell): 7.08
- pIC50 (JVM-2, JVM2 cell line, CLL, B Cell): 7.89
- pIC50 (JVM-3, JVM-3 cell line, CLL, B Cell): 5.07
- pIC50 (Jurkat, Jurkat cell line, ALL, T Cell): 7.77
- pIC50 (K562, K562 cell line, CML, Lymphoblast): 5.01
- pIC50 (KG-1, KG-1 cell line, AML, B Cell): 6.55
- pIC50 (KU812, Ku812 cell line, CML, Basophilic Leukocyte): 7.14
- pIC50 (Kasumi 1, Kasumi-1 cell line, AML, Myeloblast): 7.65
- pIC50 (Kasumi-2 cell line, AML, Myeloblast): 6.34
- pIC50 (L-428, L428 cell line, Hodgkin's Lymphoma, Unspecified): 8.92
- pIC50 (MC116, MC116 cell line, Burkitt's Lymphoma, B Cell): 6.49
- pIC50 (MEC1, MEC1 cell line, CLL, B Cell): 6.77
- pIC50 (MEC2, MEC-2 cell line, CLL, B Cell): 6.95
- pIC50 (MEG-01, MEG01 cell line, CML, Megakaryoblastic): 6.55
- pIC50 (MHH-CALL-3 cell line, ALL, pre-B Cell): 7.59
- pIC50 (MHH-PREB-1, MHH-PREB-1 cell line, Non-Hodgkin's Lymphoma, B Cell): 6.03
- pIC50 (ML-2, ML-2 cell line, AML, Myelomonocytic): 6.40
- pIC50 (MOLT-3, MOLT3 cell line, ALL, T Cell): 7.72
- pIC50 (MOLT-4, Molt-4 cell line, ALL, T Cell): 8.00
- pIC50 (MOLT-16, MOLT16 cell line, ALL, T Cell): 7.82
- pIC50 (MV4-11, MV-4-11 cell line, AML, Myelomonocytic): 6.06
- pIC50 (NALM-6, Nalm-6 cell line, ALL, pre-B Cell): 7.13
- pIC50 (NC-37, NC-37 cell line, Burkitt's Lymphoma, B Cell): 6.12
- pIC50 (NOMO-1, Nomo-1 cell line, AML, B Cell): 7.32
- pIC50 (NU-DHL-1, NU-DHL-1 cell line, Burkitt's Lymphoma, B Cell): 7.80
- pIC50 (OCI-AML2, OCI-AML-2 cell line, AML, B Cell): 4.74
- pIC50 (OCI-AML-3, OCI-AML-3 cell line, AML, B Cell): 7.55
- pIC50 (OCI-M1, OCI-M1 cell line, AML, B Cell): 6.19
- pIC50 (P3HR-1, P3HR-1 cell line, Burkitt's Lymphoma, B Cell): 7.77
- pIC50 (PLB-985, PLB985 cell line, AML, B Cell): 5.94
- pIC50 (Pfeiffer, Pfeiffer cell line, Non-Hodgkin's Lymphoma, B Cell): 8.00
- pIC50 (RCH-ACV cell line, ALL, pre-B Cell): 6.80
- pIC50 (RCK8, RC-K8 cell line, Non-Hodgkin's Lymphoma (Histiocytic), B Cell): 5.76
- pIC50 (REH, Reh cell line, ALL, pre-B Cell): 7.04
- pIC50 (RL, RL cell line, Non-Hodgkin's Lymphoma, B Cell): 7.14
- pIC50 (RPMI-6666, RPMI 6666 cell line, Hodgkin's Lymphoma, Lymphoblast): 6.92
- pIC50 (RS4-11, RS4;11 cell line, ALL, B Cell): 6.75
- pIC50 (Raji, Raji cell line, Burkitt's Lymphoma, B Cell): 5.20
- pIC50 (Rec1, REC-1 cell line, Non-Hodgkin's Lymphoma, B Cell): 6.14
- pIC50 (SC-1, SC1 cell line, Burkitt's Lymphoma, B Cell): 6.02
- pIC50 (SEM cell line, ALL, pre-B Cell): 6.68
- pIC50 (SKO-007, SKO-007 cell line, Multiple Myeloma, B Cell): 5.31
- pIC50 (SKW3, SKW-3 cell line, CLL, B Cell): 7.59
- pIC50 (SR, SR cell line, Non-Hodgkin's Lymphoma, Lymphoblast): 5.71
- pIC50 (ST486, ST486 cell line, Burkitt's Lymphoma, B Cell): 6.13
- pIC50 (SU-DHL10, SU-DHL-10 cell line, Non-Hodgkin's Lymphoma, B Cell): 7.14
- pIC50 (SU-DHL-4, SU-DHL-4 cell line, Non-Hodgkin's Lymphoma, B Cell): 7.28
- pIC50 (SU-DHL-5, SU-DHL-5 cell line, Non-Hodgkin's Lymphoma, B Cell): 7.51
- pIC50 (SU-DHL-6, SU-DHL-6 cell line, Non-Hodgkin's Lymphoma, B Cell): 7.46
- pIC50 (SU-DHL-16, SU-DHL-16 cell line, Non-Hodgkin's Lymphoma, B Cell): 7.64
- pIC50 (SUP-B15, SUP B15 cell line, ALL, B Cell): 6.08
- pIC50 (T-cell, 8E5 cell line, ALL, T Cell): 7.51
- pIC50 (T-cell, A3 cell line, ALL, T Cell): 7.42
- pIC50 (T-cell, CEM/C3 cell line, ALL, T Cell): 7.74
- pIC50 (T-cell, I2.1 cell line, ALL, T Cell): 7.59
- pIC50 (T-cell, I9.2 cell line, ALL, T Cell): 7.37
- pIC50 (T-cell, J.Cam.1.6 cell line, ALL, T Cell): 7.39
- pIC50 (T-cell, J.RT-T3.5 cell line, ALL, T Cell): 7.52
- pIC50 (T-cell, JR45.01 cell line, ALL, T Cell): 7.80
- pIC50 (T-cell, LOUCY cell line, ALL, T Cell): 7.89
- pIC50 (T-cell, MJ cell line, Non-Hodgkin's Lymphoma (CTCL), T Cell): 5.54
- pIC50 (T-cell, P116 cell line, ALL, T Cell): 7.74
- pIC50 (T-cell, SUPTI(VB) cell line, ALL, T Cell): 6.94
- pIC50 (TO 175.T, TO 175.T cell line, Hodgkin's Lymphoma, Unspecified): 5.28
- pIC50 (Toledo, Toledo cell line, Non-Hodgkin's Lymphoma, B Cell): 7.00
- pIC50 (U-937, U937 cell line, Non-Hodgkin's Lymphoma (Histiocytic), Monocyte): 7.66
